Values quoted from earlier work as cited in US9789102B2, “H3 receptor antagonist for use in the treatment of alzheimer's disease” (SANOFI, priority 2012, dated 2017).

System: protein tau hyperphosphorylation
Settings: 2-week treatment; TAPP transgenic mice; histopathological studies; cited from earlier work

## C[C@@H]1CCCN1CCc1cc2cc(-c3ccc(C#N)cc3)ccc2o1 [ABT-239]
  protein tau hyperphosphorylation in the spinal cord and hippocampus: effect
